Reference: PMC5780493, “Epsin and Sla2 form assemblies through phospholipid interfaces” (Nature Communications, 2018)
Substitutions are numbered along the chain they refer to.

Key:
[1] = target: T1, ENTH (epsin ENTH domain, C. thermophilum) (Thermochaetoides thermophila, UniProt G0SAK2); test: native MS titration, corrected for unspecific binding; conditions: ammonium acetate 300 mM, 1 mM DTT, pH 8.0; 10 uM protein, 60 uM PIP2; two sites, positive cooperativity
T1 construct: ENTH domain; E. coli, N-terminal His6 tag cut with TEV
T1 sequence (G0SAK2 with tags, fused parts or gaps): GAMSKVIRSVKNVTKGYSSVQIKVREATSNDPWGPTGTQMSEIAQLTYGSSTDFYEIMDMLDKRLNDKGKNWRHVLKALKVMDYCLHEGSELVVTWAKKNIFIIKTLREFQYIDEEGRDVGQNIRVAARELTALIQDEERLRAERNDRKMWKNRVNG

[2] = target: T2, ENTH1 (Ent1 ENTH domain, S. cerevisiae) (Saccharomyces cerevisiae, UniProt Q12518); test: as above; conditions: ammonium acetate 300 mM, 1 mM DTT, pH 8.0; 10 uM protein, 60 uM PIP2; two sites, positive cooperativity
T2 construct: ENTH domain (N-terminal); purified recombinant
T2 sequence (Q12518 1-154): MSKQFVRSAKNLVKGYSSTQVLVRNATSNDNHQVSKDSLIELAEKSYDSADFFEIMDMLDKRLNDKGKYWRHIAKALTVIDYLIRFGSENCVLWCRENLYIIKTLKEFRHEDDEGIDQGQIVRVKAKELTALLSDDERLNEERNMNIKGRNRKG

ANTHSla2 (S. cerevisiae) [3] = target: T3, ANTHSla2 (S. cerevisiae) (Saccharomyces cerevisiae, UniProt P33338); test: as above; conditions: ammonium acetate 300 mM, 1 mM DTT, pH 8.0; 10 uM protein, 60 uM PIP2; two sites, positive cooperativity
T3 construct: gene SLA2; ANTH domain (N-terminal); purified recombinant
T3 sequence (P33338 1-360 limits assumed): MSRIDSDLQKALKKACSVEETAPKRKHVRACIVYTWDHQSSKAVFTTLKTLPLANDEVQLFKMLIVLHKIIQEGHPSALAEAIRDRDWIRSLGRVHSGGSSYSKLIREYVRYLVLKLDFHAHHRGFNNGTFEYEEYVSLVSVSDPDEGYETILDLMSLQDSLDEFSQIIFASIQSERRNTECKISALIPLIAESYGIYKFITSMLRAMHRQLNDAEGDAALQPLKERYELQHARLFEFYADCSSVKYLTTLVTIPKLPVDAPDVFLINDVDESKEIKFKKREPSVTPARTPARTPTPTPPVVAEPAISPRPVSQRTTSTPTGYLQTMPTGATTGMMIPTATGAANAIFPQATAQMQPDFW

ANTHSla2 (S. cerevisiae) [4] = target: T3, ANTHSla2 (S. cerevisiae); test: as above; conditions: ammonium acetate 300 mM, 1 mM DTT, pH 8.0; 10 uM protein, 60 uM PIP2; second site (canonical site removed)
[5] = target: T4, ENTH1 (Ent1 ENTH domain, S. cerevisiae) (Saccharomyces cerevisiae, UniProt Q12518, T104E); test: native MS; format: binding; conditions: ammonium acetate, 1 mM DTT, pH 8.0; 10 uM protein, 60 uM PIP2
T4 construct: ENTH domain (N-terminal); purified recombinant
T4 sequence (Q12518 1-154 T104E): T2 sequence (Q12518 1-154) with T104E

[6] = target: T5, ANTHSla2 (C. thermophilum), ANTHCh (Thermochaetoides thermophila, UniProt G0S106); test: native MS titration, corrected for unspecific binding; conditions: ammonium acetate 300 mM, 1 mM DTT, pH 8.0; 10 uM protein, 60 uM PIP2; two sites
T5 construct: gene CTHT_0011900; ANTH domain; E. coli, N-terminal His6 tag cut with TEV

CALM ANTH domain = target: T6, CALM ANTH domain (Homo sapiens, UniProt Q13492); test: as above; conditions: ammonium acetate 300 mM, 1 mM DTT, pH 8.0; 10 uM protein, 60 uM PIP2; two sites, not cooperative
T6 construct: gene PICALM; ANTH domain; E. coli, N-terminal His6 tag cut with TEV
T6 sequence (Q13492 1-289 limits assumed): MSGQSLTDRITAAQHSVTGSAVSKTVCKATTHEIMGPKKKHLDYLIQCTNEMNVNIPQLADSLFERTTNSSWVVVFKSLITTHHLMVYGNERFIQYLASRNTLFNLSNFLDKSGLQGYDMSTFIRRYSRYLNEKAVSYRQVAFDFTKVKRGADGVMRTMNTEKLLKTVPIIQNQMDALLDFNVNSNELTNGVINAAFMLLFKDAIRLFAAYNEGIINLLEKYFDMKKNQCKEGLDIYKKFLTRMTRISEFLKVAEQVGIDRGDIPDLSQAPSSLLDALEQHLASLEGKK

[7] = target: T7, ENTH2 (Ent2 ENTH domain, S. cerevisiae) (Saccharomyces cerevisiae, UniProt Q05785); test: X-ray crystal structure, […] A; format: binding; conditions: 0.1 M MES pH 6.5, 1.45 M ammonium sulfate; canonical phosphoinositide pocket, dimer interface
T7 construct: ENTH domain (N-terminal); purified recombinant; two domains sandwich one PIP2 in the crystal
T7 sequence (Q05785 1-156): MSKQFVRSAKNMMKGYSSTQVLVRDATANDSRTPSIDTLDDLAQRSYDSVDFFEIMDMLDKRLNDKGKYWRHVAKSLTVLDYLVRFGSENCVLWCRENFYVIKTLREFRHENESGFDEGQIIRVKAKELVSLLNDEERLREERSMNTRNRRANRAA

[8] = target: T7, ENTH2 (Ent2 ENTH domain, S. cerevisiae); test: native MS titration, corrected for unspecific binding; conditions: ammonium acetate 300 mM, 1 mM DTT, pH 8.0; 10 uM protein, 60 uM PIP2; two sites, positive cooperativity
[9] = target: T8, human epsin-1 ENTH (EPN1) (Homo sapiens, UniProt Q9Y6I3); test: native MS; SAXS; format: binding; conditions: hexamer formation with PIP2; SAXS in 20 mM Tris-HCl pH 8.0, 250 mM NaCl, 0.2 mM PIP2
T8 construct: ENTH domain aa 1-158, extra Gly after start Met; E. coli His-GST fusion, tag cut with TEV; hexamer with PIP2
T8 sequence (Q9Y6I3 1-158): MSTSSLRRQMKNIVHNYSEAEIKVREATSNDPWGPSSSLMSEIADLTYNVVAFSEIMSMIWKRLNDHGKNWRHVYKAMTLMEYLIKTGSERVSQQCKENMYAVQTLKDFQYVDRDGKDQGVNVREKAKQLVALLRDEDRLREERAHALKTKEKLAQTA

[10] = target: T9, human epsin-1 ENTH/Hip1R ANTH complex (Homo sapiens, UniProt O75146+Q9Y6I3); test: native MS of assembled complex; format: binding; conditions: ammonium acetate 300 mM, 1 mM DTT, pH 8.0; 10 uM ENTH, 10 uM ANTH, 60 uM PIP2; stoichiometry
T9 construct: gene EPN1; EPN1 aa 1-158 (extra Gly after Met) and Hip1R aa 1-300; His-GST tags cut with TEV; 6:0 to 8:8, mainly 6:6
T9 sequence (Q9Y6I3 1-158): T8 sequence (Q9Y6I3 1-158)
T9 sequence (O75146 1-300): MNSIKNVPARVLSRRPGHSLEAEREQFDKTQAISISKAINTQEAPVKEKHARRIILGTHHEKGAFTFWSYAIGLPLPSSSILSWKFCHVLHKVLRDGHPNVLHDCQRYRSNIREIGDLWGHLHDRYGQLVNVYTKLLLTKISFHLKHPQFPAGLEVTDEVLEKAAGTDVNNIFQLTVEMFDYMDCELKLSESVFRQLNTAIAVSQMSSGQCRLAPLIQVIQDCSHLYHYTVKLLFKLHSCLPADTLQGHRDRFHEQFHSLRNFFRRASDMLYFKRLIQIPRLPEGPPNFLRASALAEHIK

Epsin (Ent1) ENTH = target: T10, Epsin (Ent1) ENTH (Saccharomyces cerevisiae, UniProt Q12518); test: ITC
T10 chain: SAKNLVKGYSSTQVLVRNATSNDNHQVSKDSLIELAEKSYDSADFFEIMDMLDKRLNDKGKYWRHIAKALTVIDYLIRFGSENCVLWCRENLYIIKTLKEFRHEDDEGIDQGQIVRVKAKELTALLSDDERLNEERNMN

T5 sequence (G0S106 entry or part of it): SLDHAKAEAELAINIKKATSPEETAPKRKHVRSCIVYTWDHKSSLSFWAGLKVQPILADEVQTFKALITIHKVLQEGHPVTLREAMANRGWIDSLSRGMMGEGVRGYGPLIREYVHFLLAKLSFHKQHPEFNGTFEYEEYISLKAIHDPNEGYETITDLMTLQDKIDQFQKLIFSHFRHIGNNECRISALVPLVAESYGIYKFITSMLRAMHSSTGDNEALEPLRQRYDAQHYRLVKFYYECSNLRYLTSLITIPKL

CCCCCCCC(=O)OC[C@H](COP(=O)(O)O[C@@H]1[C@H](O)[C@H](O)[C@@H](OP(=O)(O)O)[C@H](OP(=O)(O)O)[C@H]1O)OC(=O)CCCCCCC [PIP2]
KD,1 / KD,2 (macroscopic) [1]: homologous epsin from C. thermophilum bind up to two PIP2 molecules per domain
KD,1 / KD,2 (macroscopic) [2]: ENTH1 and ENTH2) from S. cerevisiae
KD,1 / KD,2 (macroscopic) (ANTHSla2 (S. cerevisiae) [3]): PIP2 dissociation constants are higher for Sla2 ANTH domains than for ENTH domains
dissociation constant (ANTHSla2 (S. cerevisiae) [4]): 300 ± 70 µM
native MS [5]: Thr104Glu mutant of ENTH1 from S. cerevisiae shows a reduction of PIP2 binding
KD,1 / KD,2 (macroscopic) [6]: several ANTH domains, showing two PIP2 binding sites for all wild-type proteins
KD,1 / KD,2 (macroscopic) (CALM ANTH domain): macroscopic dissociation constants for CALM suggest higher affinity for the first PIP2-binding site
X-ray crystal structure, 3.35 A [7]: The structure shows two ENTH2 domains sandwiched around one PIP2 molecule
KD,1 / KD,2 (macroscopic) [8]: ENTH1 and ENTH2) from S. cerevisiae
native MS; SAXS [9]: A minimum of six PIP2 molecules is required for human ENTH hexamer formation
native MS of assembled complex [10]: human epsin-1 ENTH domain with human Hip1R ANTH domain and PIP2

B1: Sla2 ANTH (protein)
chain: MSRIDSDLQKALKKACSVEETAPKRKHVRACIVYTWDHQSSKAVFTTLKTLPLANDEVQLFKMLIVLHKIIQEGHPSALAEAIRDRDWIRSLGRVHSGGSSYSKLIREYVRYLVLKLDFHAHHRGFNNGTFEYEEYVSLVSVSDPDEGYETILDLMSLQDSLDEFSQIIFASIQSERRNTECKISALIPLIAESYGIYKFITSMLRAMHRQLNDAEGDAALQPLKERYELQHARLFEFYADCSSVKYLTTLVTIPKLPVDAPDVFLINDVDESKEIKFKKREPSVT
modifications: PIP2
Kd (Epsin (Ent1) ENTH): 450 nM
